Results on four compounds are retold here after ChEMBL document CHEMBL1131898, “4-Pyridin-5-yl-2-(3,4,5-trimethoxyphenylamino)pyrimidines: potent and selective inhibitors of ZAP 70” (Bioorg Med Chem Lett, 1999).

Molecules are shown by their SMILES.

Assay [1] deals with Tyrosine-protein kinase CSK (Homo sapiens, UniProt P41240). The experiment in a line: Inhibition of csk tyrosine kinase.
For assay [2], the target named is Tyrosine-protein kinase Lck (Homo sapiens, UniProt P06239). In words: Inhibition of p56 lck tyrosine kinase.
Assay [3] concerns the target T1, Tyrosine-protein kinase ZAP-70 (Homo sapiens, UniProt P43403).
T1 sequence (P43403 whole entry): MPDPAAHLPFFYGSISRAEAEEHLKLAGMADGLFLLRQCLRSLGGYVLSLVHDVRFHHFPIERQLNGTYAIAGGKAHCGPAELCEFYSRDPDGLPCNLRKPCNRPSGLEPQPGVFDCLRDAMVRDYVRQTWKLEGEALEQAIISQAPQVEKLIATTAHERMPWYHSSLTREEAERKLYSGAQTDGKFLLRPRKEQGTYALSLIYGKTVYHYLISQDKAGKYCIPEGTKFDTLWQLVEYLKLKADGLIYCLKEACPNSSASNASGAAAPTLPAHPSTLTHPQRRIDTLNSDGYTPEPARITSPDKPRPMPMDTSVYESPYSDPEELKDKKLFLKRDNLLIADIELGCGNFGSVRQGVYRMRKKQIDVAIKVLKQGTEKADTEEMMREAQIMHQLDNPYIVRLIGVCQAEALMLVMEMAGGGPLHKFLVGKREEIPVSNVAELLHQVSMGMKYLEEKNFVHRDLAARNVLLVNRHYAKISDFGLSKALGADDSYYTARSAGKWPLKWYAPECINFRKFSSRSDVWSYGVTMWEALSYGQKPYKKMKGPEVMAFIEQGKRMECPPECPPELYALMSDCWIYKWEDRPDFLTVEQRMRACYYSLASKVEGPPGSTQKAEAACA
In words: Inhibition of Zeta-chain (TCR) associated protein kinase 70 kDa phosphorylation of polyGly-Tyr.

For a further assay, the target named is Protein kinase C (PKC). In words: Inhibition of protein kinase C (PKC). Type of assay: protein assay.
Assay [4] addresses Epidermal growth factor receptor (Homo sapiens, UniProt P00533). In words: Inhibition of Epidermal growth factor receptor (EGFr).

Tyrosine-protein kinase Lck, sequence (P06239 whole entry): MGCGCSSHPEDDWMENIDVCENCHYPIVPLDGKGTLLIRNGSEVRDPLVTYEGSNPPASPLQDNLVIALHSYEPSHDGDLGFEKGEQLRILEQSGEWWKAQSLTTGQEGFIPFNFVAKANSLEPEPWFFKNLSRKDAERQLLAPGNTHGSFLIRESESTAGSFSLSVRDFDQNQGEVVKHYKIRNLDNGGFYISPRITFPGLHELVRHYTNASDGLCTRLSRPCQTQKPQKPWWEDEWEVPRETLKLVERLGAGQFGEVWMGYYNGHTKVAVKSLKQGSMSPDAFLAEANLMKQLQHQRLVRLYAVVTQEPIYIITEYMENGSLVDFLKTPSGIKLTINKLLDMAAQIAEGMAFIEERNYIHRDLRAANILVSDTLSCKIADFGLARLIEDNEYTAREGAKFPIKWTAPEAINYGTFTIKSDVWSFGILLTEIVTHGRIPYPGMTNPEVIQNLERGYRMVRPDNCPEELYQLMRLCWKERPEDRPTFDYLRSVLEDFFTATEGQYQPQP
Tyrosine-protein kinase CSK, sequence (P41240 whole entry): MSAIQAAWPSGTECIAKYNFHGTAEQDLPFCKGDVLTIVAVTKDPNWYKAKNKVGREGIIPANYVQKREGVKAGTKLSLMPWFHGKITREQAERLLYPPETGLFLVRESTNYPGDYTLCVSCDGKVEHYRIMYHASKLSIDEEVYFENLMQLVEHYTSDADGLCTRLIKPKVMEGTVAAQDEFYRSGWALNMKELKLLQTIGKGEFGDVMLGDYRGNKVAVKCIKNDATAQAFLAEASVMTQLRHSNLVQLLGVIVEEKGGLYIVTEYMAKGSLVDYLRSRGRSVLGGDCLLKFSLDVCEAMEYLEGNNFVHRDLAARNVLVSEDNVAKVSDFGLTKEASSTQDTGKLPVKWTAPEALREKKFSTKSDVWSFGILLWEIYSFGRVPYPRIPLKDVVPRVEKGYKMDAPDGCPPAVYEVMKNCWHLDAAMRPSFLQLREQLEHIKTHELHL
Epidermal growth factor receptor, sequence (P00533 whole entry): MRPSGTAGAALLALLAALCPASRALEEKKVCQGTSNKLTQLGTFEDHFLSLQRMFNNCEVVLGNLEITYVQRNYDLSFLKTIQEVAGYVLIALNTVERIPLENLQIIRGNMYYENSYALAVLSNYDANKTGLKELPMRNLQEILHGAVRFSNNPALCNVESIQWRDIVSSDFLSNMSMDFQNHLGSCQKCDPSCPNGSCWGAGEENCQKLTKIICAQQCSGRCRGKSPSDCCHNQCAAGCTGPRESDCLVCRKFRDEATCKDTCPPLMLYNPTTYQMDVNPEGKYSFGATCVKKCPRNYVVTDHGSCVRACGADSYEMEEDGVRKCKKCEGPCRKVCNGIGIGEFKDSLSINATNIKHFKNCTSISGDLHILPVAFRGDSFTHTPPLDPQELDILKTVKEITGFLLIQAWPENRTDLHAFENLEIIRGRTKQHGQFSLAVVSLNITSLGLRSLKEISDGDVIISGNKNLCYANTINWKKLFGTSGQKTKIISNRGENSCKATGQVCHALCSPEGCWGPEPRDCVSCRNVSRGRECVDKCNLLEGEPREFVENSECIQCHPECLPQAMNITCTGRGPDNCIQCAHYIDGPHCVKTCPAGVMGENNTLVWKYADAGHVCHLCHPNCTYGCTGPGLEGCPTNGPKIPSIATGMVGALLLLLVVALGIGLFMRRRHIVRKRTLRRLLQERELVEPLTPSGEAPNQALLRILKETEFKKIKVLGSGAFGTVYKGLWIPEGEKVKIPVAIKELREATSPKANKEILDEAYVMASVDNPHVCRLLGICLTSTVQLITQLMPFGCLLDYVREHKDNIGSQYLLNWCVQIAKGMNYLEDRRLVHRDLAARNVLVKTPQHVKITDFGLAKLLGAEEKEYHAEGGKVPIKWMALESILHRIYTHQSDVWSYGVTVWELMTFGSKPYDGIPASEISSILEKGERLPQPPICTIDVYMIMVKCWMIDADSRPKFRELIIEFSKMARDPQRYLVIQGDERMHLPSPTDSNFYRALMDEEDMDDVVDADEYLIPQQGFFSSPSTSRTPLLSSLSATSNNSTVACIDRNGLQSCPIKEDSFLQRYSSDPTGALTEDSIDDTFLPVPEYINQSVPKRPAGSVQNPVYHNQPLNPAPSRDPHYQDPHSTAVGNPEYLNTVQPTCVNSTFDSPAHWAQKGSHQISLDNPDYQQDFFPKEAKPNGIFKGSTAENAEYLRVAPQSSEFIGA

Turning to `COc1cc(Nc2nccc(-c3ccc(N4CCNCC4)nc3)n2)cc(OC)c1OC`, the IC50 in assay [1] is over 10000 nM; in assay [2], 3300 nM; in assay [3] it was 54 nM; against Protein kinase C (PKC), 1300 nM.
For `COc1cc(Nc2nccc(-c3ccc(NCCN)nc3)n2)cc(OC)c1OC`, the IC50 in assay [1] is over 10000 nM; in assay [2], 1200 nM; in assay [4], 5100 nM; on Protein kinase C (PKC), 150 nM.
On to `CC[C@H]1CN(c2ccc(-c3ccnc(Nc4cc(OC)c(OC)c(OC)c4)n3)cn2)CCN1`, for which the values for the IC50 (in assay [2]; in assay [3]; on Protein kinase C (PKC)) were 2200 nM, 8 nM and 2874 nM, respectively.
The corresponding values for `COc1cc(Nc2nccc(-c3cccnc3)n2)cc(OC)c1OC` are 1100 nM, 1900 nM and 1400 nM.

What is called IC50 is the concentration that inhibits the measured activity by half. High values mean a need for much substance, low ones inhibition by little substance.
